Results from ChEMBL document CHEMBL5727940, “Substituted piperazines as selective HDAC1,2 inhibitors” (2020).

Target: hERG (KCNH2) (Homo sapiens, UniProt Q12809)
Assay: hERG inhibition assays: For hERG inhibition assays, the cells used were HEK293 cells stably transfected with hERG (cell line obtained from Cytocentrics Inc. 3463 Magic Drive San Antonio, Tex. 78229). Composition of External Solution: NaCl, 137 mM; KCl, 4 mM; MgCl2, 1.0 mM; CaCl2, 1.8 mM; HEPES 10 mM; Dextrose 11 mM; Adjusted to a pH of 7.4 with NaOH. Composition of Internal Solution: KCl, 130.0 mM
Settings: pH 7.4

Sequence of hERG (KCNH2) (Q12809 whole entry): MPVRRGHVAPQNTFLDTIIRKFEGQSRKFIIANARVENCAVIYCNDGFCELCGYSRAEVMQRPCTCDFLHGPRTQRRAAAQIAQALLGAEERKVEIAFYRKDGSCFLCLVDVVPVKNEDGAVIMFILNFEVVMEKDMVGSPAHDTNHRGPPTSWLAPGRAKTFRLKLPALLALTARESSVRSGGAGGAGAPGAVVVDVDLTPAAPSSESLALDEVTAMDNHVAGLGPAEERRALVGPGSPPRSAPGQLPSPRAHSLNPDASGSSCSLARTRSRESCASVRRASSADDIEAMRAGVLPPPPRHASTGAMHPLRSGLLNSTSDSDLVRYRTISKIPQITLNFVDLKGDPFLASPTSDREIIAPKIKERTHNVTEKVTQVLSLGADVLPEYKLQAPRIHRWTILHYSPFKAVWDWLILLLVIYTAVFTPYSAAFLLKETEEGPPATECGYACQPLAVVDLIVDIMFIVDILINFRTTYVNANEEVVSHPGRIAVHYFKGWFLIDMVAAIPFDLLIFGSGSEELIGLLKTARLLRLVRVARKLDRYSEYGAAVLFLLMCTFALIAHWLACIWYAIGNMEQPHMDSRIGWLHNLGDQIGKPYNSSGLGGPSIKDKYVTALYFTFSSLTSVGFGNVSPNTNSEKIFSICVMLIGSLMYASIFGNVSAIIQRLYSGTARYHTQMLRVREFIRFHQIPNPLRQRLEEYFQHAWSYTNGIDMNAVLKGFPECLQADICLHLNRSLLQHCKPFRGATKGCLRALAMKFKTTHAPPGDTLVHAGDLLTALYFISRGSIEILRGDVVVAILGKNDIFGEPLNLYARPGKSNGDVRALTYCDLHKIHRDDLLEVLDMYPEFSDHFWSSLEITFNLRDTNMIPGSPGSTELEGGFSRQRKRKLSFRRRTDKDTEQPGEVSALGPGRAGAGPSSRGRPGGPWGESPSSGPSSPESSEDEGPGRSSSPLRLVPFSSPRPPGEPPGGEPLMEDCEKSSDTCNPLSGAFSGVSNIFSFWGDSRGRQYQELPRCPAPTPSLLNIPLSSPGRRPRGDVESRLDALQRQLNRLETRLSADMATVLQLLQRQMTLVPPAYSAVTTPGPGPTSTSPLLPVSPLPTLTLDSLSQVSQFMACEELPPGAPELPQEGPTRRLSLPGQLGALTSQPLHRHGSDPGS

In the case of Nc1ccc(-c2cccs2)cc1NC(=O)c1ncc(N2CCNCC2)s1, the IC50 is reported as 3.6 µM.
